Experimental data: the NIST ThermoML archive (doi:10.1016/j.jct.2008.09.018)

Assay: xn = mol fraction of the nth substance listed
Settings: 101 kPa, Liquid; for speed of sound: Pulse-echo method; for viscosity: Capillary tube (Ostwald / Ubbelohde) method; for mass density: Vibrating tube method

CCCCCCCCCO [nonan-1-ol] + OCCO
Settings | mass density [kg/m3] | speed of sound [m/s] | viscosity [mPa·s]
293.15 K, x2 = 0 | – | 1381.6 | –
293.15 K, x2 = 0.1002 | – | 1383.9 | –
293.15 K, x2 = 0.1979 | – | 1387.2 | –
293.15 K, x2 = 0.2964 | – | 1391.9 | –
293.15 K, x2 = 0.3641 | – | 1396.2 | –
293.15 K, x2 = 0.4533 | – | 1403.7 | –
293.15 K, x2 = 0.5432 | – | 1414.2 | –
293.15 K, x2 = 0.6441 | – | 1431.5 | –
293.15 K, x2 = 0.7517 | – | 1460.2 | –
293.15 K, x2 = 0.9308 | – | 1571.1 | –
298.15 K, x2 = 0 | 824.48 | 1364.4 | 9.494
298.15 K, x2 = 0.1002 | 833.41 | 1366.8 | 9.581
298.15 K, x2 = 0.1979 | 843.96 | 1370.3 | 10.01
298.15 K, x2 = 0.2964 | 856.32 | 1375.2 | 10.67
298.15 K, x2 = 0.3641 | 866.44 | 1379.8 | 11.26
298.15 K, x2 = 0.4533 | 881.71 | 1387.6 | 12.22
298.15 K, x2 = 0.5432 | 900.44 | 1398.4 | 13.41
298.15 K, x2 = 0.6441 | 926.38 | 1416.2 | 15.09
298.15 K, x2 = 0.701 | 944.22 | – | –
298.15 K, x2 = 0.7517 | 963.14 | 1445.4 | 17.32
298.15 K, x2 = 0.9308 | 1055.33 | 1558.5 | 19.28
303.15 K, x2 = 0 | 821.05 | 1347.4 | 7.994
303.15 K, x2 = 0.1002 | 830.02 | 1350 | 8.014
303.15 K, x2 = 0.1979 | 840.61 | 1353.6 | 8.359
303.15 K, x2 = 0.2964 | 852.92 | 1358.8 | 8.897
303.15 K, x2 = 0.3641 | 863 | 1363.5 | 9.37
303.15 K, x2 = 0.4533 | 878.3 | 1371.5 | 10.14
303.15 K, x2 = 0.5432 | 896.94 | 1382.7 | 11.09
303.15 K, x2 = 0.6441 | 922.82 | 1400.8 | 12.4
303.15 K, x2 = 0.701 | 940.61 | – | –
303.15 K, x2 = 0.7517 | 959.57 | 1430.7 | 14.12
303.15 K, x2 = 0.9308 | 1051.63 | 1545.7 | 15.47
308.15 K, x2 = 0 | 817.57 | 1330.5 | 6.713
308.15 K, x2 = 0.1002 | 826.58 | 1333.2 | 6.801
308.15 K, x2 = 0.1979 | 837.18 | 1337.1 | 7.044
308.15 K, x2 = 0.2964 | 849.41 | 1342.4 | 7.487
308.15 K, x2 = 0.3641 | 859.49 | 1347.3 | 7.872
308.15 K, x2 = 0.4533 | 874.74 | 1355.6 | 8.493
308.15 K, x2 = 0.5432 | 893.37 | 1367.1 | 9.257
308.15 K, x2 = 0.6441 | 919.23 | 1385.6 | 10.31
308.15 K, x2 = 0.701 | 937.01 | – | –
308.15 K, x2 = 0.7517 | 956 | 1416.1 | 11.66
308.15 K, x2 = 0.9308 | 1048.12 | 1532.9 | 12.67
313.15 K, x2 = 0 | 814.19 | 1313.6 | 5.657
313.15 K, x2 = 0.1002 | 823.15 | 1316.5 | 5.782
313.15 K, x2 = 0.1979 | 833.73 | 1320.6 | 5.984
313.15 K, x2 = 0.2964 | 845.93 | 1326.3 | 6.352
313.15 K, x2 = 0.3641 | 855.98 | 1331.3 | 6.667
313.15 K, x2 = 0.4533 | 871.22 | 1339.8 | 7.176
313.15 K, x2 = 0.5432 | 889.84 | 1351.6 | 7.796
313.15 K, x2 = 0.6441 | 915.68 | 1370.4 | 8.65
313.15 K, x2 = 0.701 | 933.39 | – | –
313.15 K, x2 = 0.7517 | 952.37 | 1401.6 | 9.722
313.15 K, x2 = 0.9308 | 1044.52 | 1520.3 | 10.47
